Test results: patent US20070128217A1 (priority 2003, published 2007)

Columns and labels:
[1] = tested on: control sera (pooled serum of ten healthy LUMC hospital workers; commercial negative donor pooled serum from the Dutch bloodbank); type: binding, human; parameters: Binding of Control serum LUMC to linear peptides / Binding of Control serum Blood-bank to linear peptides / Binding of Control serum LUMC to looped peptides / Binding of Control Serum Blood-Bank to Looped peptides / Binding of Control serum LUMC to linear peptides of the protein M of SARS-CoV Urbani / Binding of Control serum Blood-bank to linear peptides of the protein M of SARS-CoV Urbani / Binding of Control serum LUMC to looped peptides of the protein M of SARS-CoV Urbani / Binding of Control Serum Blood-Bank to Looped peptides of the protein M of SARS-CoV Urbani: unit not given here
[2] = tested on: rabbit serum obtained by immunizing a rabbit with the SARS-CoV strain Frankfurt 1; type: binding; parameters: Binding of a rabbit serum to linear peptides / Binding of a rabbit serum to looped peptides / Rabbit serum linear peptides / Rabbit serum looped peptides / Binding of a rabbit serum to linear peptides of protein N of SARS-CoV Urbani (Rabbit serum linear peptides) / Binding of a rabbit serum to looped/cyclic peptides of protein N of SARS-CoV Urbani (Rabbit serum looped peptides): unit not given here
[3] = tested on: antibodies in sera from SARS patients (sera 1a, 1b, 2, 6, 37, 62, London, SARS-yellow, SARS-green); type: binding, human; parameters: Binding of serum 6 to linear peptides of protein X1 of SARS-CoV Urbani / Binding of serum 37 to linear peptides of protein X1 of SARS-CoV Urbani / Binding of serum 6 to looped/cyclic peptide (PEPSCAN-ELISA) / Binding of serum 37 to looped/cyclic peptide (PEPSCAN-ELISA) / Binding of serum 37 to looped/cyclic peptides of protein X1 of SARS-CoV Urbani / Binding of serum 6 to linear peptides of protein X2 / Binding of serum 37 to linear peptides of protein X2 / Binding of serum 37 to looped/cyclic peptides of protein X2 of SARS-CoV Urbani / Binding of serum 6 to linear peptides of protein M of SARS-CoV Urbani / Binding of serum 37 to linear peptides of protein M of SARS-CoV Urbani / Binding of serum 6 to looped/cyclic peptides of protein M of SARS-CoV Urbani / Binding of serum 37 to looped/cyclic peptides of protein M of SARS-CoV Urbani / Binding of serum 6 to linear peptides of protein X3 of SARS-CoV Urbani / Binding of serum 37 to linear peptides of protein X3 of SARS-CoV Urbani / Binding of serum 37 to looped/cyclic peptides of protein X3 of SARS-CoV Urbani / Binding of serum 6 to linear peptides of protein X4 of SARS-CoV Urbani / Binding of serum 37 to linear peptides of protein X4 of SARS-CoV Urbani / Binding of serum 37 to looped/cyclic peptides of protein X4 of SARS-CoV Urbani / Binding of serum 6 to linear peptides of protein X5 of SARS-CoV Urbani / Binding of serum 37 to linear peptides of protein X5 of SARS-CoV Urbani / Binding of serum 37 to looped/cyclic peptides of protein X5 of SARS-CoV Urbani / Binding of serum 6 to linear peptides of protein N of SARS-CoV Urbani / Binding of serum 37 to linear peptides of protein N of SARS-CoV Urbani / Binding of serum 6 to linear peptide (PEPSCAN-ELISA) / Binding of serum 1a to looped/cyclic peptides of protein N of SARS-CoV Urbani / Binding of serum 1b to looped/cyclic peptides of protein N of SARS-CoV Urbani / Binding of serum 2 to looped/cyclic peptides of protein N of SARS-CoV Urbani / Binding of serum 6 to looped/cyclic peptides of protein N of SARS-CoV Urbani / Binding of serum 37 to looped/cyclic peptides of protein N of SARS-CoV Urbani / Binding of serum 62 to looped/cyclic peptides of protein N of SARS-CoV Urbani / Binding of serum London to looped/cyclic peptides of protein N of SARS-CoV Urbani / Binding of serum SARS-green to looped/cyclic peptides of protein N of SARS-CoV Urbani: unit not given here
[4] = tested on: recombinant human anti-SARS-CoV antibody 03-018; type: binding; parameters: Binding of antibody 03-018 to linear peptides of the N protein of SARS-CoV Urbani / Binding of antibody 03-018 to looped/cyclic peptides of the N protein of SARS-CoV Urbani: unit not given here

| Sequence | Binding of Control Serum Blood-Bank to Looped peptides [1] | Binding of Control serum Blood-bank to linear peptides [1] | Binding of Control serum LUMC to linear peptides [1] | Binding of Control serum LUMC to looped peptides [1] | Binding of a rabbit serum to linear peptides of protein N of SARS-CoV Urbani (Rabbit serum linear peptides) [2] | Binding of a rabbit serum to looped/cyclic peptides of protein N of SARS-CoV Urbani (Rabbit serum looped peptides) [2] | Binding of serum 1a to linear peptides of protein N of SARS-CoV Urbani [3] | Binding of serum 1a to looped/cyclic peptides of protein N of SARS-CoV Urbani [3] | Binding of serum 1b to linear peptides of protein N of SARS-CoV Urbani [3] | Binding of serum 1b to looped/cyclic peptides of protein N of SARS-CoV Urbani [3] | Binding of serum 2 to linear peptides of protein N of SARS-CoV Urbani [3] | Binding of serum 2 to looped/cyclic peptides of protein N of SARS-CoV Urbani [3] | Binding of serum 6 to looped/cyclic peptides of protein N of SARS-CoV Urbani [3] | Binding of serum 37 to looped/cyclic peptides of protein N of SARS-CoV Urbani [3] | Binding of serum 62 to looped/cyclic peptides of protein N of SARS-CoV Urbani [3] | Binding of serum London to looped/cyclic peptides of protein N of SARS-CoV Urbani [3] | Binding of serum SARS-green to looped/cyclic peptides of protein N of SARS-CoV Urbani [3] | Binding of serum SARS-yellow to looped/cyclic peptides of protein N of SARS-CoV Urbani [3] | Binding of antibody 03-018 to linear peptides of the N protein of SARS-CoV Urbani [4] | Binding of antibody 03-018 to looped/cyclic peptides of the N protein of SARS-CoV Urbani [4] | other results |
| --- | --- | --- | --- | --- | --- | --- | --- | --- | --- | --- | --- | --- | --- | --- | --- | --- | --- | --- | --- | --- | --- |
| DNGPQSNQRSAPRIT | 0.5 | 0.7 | 0.7 | 0.4 | 0.1 | 0.3 | 0.2 | 0.2 | 0.1 | 0.1 | 0.3 | 0.1 | 0.2 | 0.5 | 0.3 | 0.2 | 0.2 | 0.1 | 0.2 | 0.3 | Binding of serum 6 to linear peptides of protein N of SARS-CoV Urbani [3]: 0.2; Binding of serum 37 to linear peptides of protein N of SARS-CoV Urbani [3]: 0.6; Binding of serum 62 to linear peptides of protein N of SARS-CoV Urbani [3]: 0.5; Binding of serum London to linear peptides of protein N of SARS-CoV Urbani [3]: 0.4; Binding of serum SARS-green to linear peptides of protein N of SARS-CoV Urbani [3]: 0.4; Binding of serum SARS-yellow to linear peptides of protein N of SARS-CoV Urbani [3]: 0.5 |
| DQDLIRQGTDYKHWP | 0.4 | 0.8 | 0.7 | 0.4 | 0.1 | 0.1 |  | 0.2 |  | 0.1 |  | 0.3 | 0.1 | 0.4 | 0.3 | 0.3 | 0.1 | 0.1 | 0.1 | 0.2 | Binding of serum 1a to linear peptide (PEPSCAN-ELISA) [3]: 0.3; Binding of serum 1b to linear peptide (PEPSCAN-ELISA) [3]: 0.1; Binding of serum 2 to linear peptide (PEPSCAN-ELISA) [3]: 0.2; Binding of serum 6 to linear peptide (PEPSCAN-ELISA) [3]: 0.2; Binding of serum 37 to linear peptide (PEPSCAN-ELISA) [3]: 0.7; Binding of serum 62 to linear peptide (PEPSCAN-ELISA) [3]: 0.6; Binding of serum London to linear peptide (PEPSCAN-ELISA) [3]: 0.8; Binding of serum SARS-green to linear peptide (PEPSCAN-ELISA) [3]: 0.5; Binding of serum SARS-yellow to linear peptide (PEPSCAN-ELISA) [3]: 0.7 |
| DRLNQLESKVSGKGQ | 0.6 | 0.9 | 0.7 | 0.6 | 0.3 | 0.4 |  | 0.4 |  | 0.3 |  | 0.6 | 0.4 | 0.6 | 0.4 | 0.4 | 0.4 | 0.8 | 0.1 | 0.3 | Binding of serum 1a to linear peptide (PEPSCAN-ELISA) [3]: 0.3; Binding of serum 1b to linear peptide (PEPSCAN-ELISA) [3]: 0.1; Binding of serum 2 to linear peptide (PEPSCAN-ELISA) [3]: 0.3; Binding of serum 6 to linear peptide (PEPSCAN-ELISA) [3]: 0.2; Binding of serum 37 to linear peptide (PEPSCAN-ELISA) [3]: 0.8; Binding of serum 62 to linear peptide (PEPSCAN-ELISA) [3]: 0.7; Binding of serum London to linear peptide (PEPSCAN-ELISA) [3]: 0.5; Binding of serum SARS-green to linear peptide (PEPSCAN-ELISA) [3]: 0.5; Binding of serum SARS-yellow to linear peptide (PEPSCAN-ELISA) [3]: 0.7 |
| DSTDNNQNGGRNGAR | 0.6 | 0.8 | 0.7 | 0.7 | 0.1 | 0.5 | 0.2 | 0.4 | 0.1 | 0.3 | 0.2 | 0.5 | 0.3 | 0.7 | 0.4 | 0.5 | 0.8 | 0.5 | 0.2 | 0.3 | Binding of serum 6 to linear peptides of protein N of SARS-CoV Urbani [3]: 0.2; Binding of serum 37 to linear peptides of protein N of SARS-CoV Urbani [3]: 1.0; Binding of serum 62 to linear peptides of protein N of SARS-CoV Urbani [3]: 0.8; Binding of serum London to linear peptides of protein N of SARS-CoV Urbani [3]: 0.5; Binding of serum SARS-green to linear peptides of protein N of SARS-CoV Urbani [3]: 0.5; Binding of serum SARS-yellow to linear peptides of protein N of SARS-CoV Urbani [3]: 0.5 |
